Reference: US20100075917A1, “THIONUCLEOSIDES AND PHARMACEUTICAL APPLICATIONS” (priority 2006, published 2010)
Like-named read-outs stand apart in the source and are kept apart here.

What was measured:
[1] = system: MCF-7 mammary carcinoma cells; experiment: Cytotoxicity (MTT) on MCF-7 cells; type: cell-based, human
Description: (§1) The cytotoxic effect of a compound is studied on human CEM cells and MCF-7 mammary carcinoma cells that are or are not resistant to gemcitabine, which is an anticancer nucleoside used in chemotherapy.
(§2) The cytotoxicity (CC50) was estimated by measuring the reduction of 3-(4,5-dimethylthiazol-2-yl)-2,5-diphenyltetrazolium bromide (MTT), which is converted into insoluble violet formazan. To do this, 100 000 cells (human CEM-SS or MCF-7 lines) are inoculated per well in 100 μl of culture medium, in 96-well microtitration plates. After 24 hours, the test products are added in 100 μl and incubation is continued for 48 to 72 hours. MIT is then added in a proportion of 20 μl of a solution at 5 mg/ml in PBS. Three hours later, 100 μl of a DMF/acetic acid/HCl/SDS (sodium dodecyl sulfate) solution are added. After 3 hours at 37° C., the absorbance of the formazan is measured at 590 nm and compared with that of the untreated control.

[2] = system: human CEM cells; experiment: Cytotoxicity (MTT) on CEM cells; type: cell-based; details: CCRF-CEM; for CC50: read-out: CC50 CEM; for EC50: Tables 4 and 6, CEM cells, some values 'then plateau'
Description: as §1, §2

[3] = system: HeLa cells; experiment: Cytotoxic effect on HeLa cells; type: cell-based; set-up: unit not given beside the values; details: Tables 5 and 7, HeLa cells
[4] = system: FM3A/0 murine mammary carcinoma cells; experiment: Cytotoxic effect on FM3A/0 cells; type: cell-based; set-up: unit not given beside the values; details: Tables 5 and 7, FM3A/0 cells
[5] = system: L1210/0 murine leukemia cells; experiment: Cytotoxic effect on L1210/0 cells; type: cell-based; details: Tables 5 and 7, L1210/0 cells
[6] = system: human CEM T4 lymphocytes; experiment: Cytotoxic effect on CEM T4 lymphocytes; type: cell-based; set-up: unit not given beside the values; details: Tables 5 and 7, CEM cells
[7] = system: Moloney sarcoma virus; experiment: Inhibition of transformation of mouse embryo C3H/3T3 cells induced by Moloney sarcoma virus; type: cell-based; set-up: MIC (minimum inhibitory concentration): unit not given here; details: for MIC (minimum inhibitory concentration): C3H/3T3 cells, a second bound is given in brackets for some compounds
From the text: 2.2. Inhibitory Effect on the Transformation of Mouse Embryo C3H/3T3 Cells Induced by Moloney Sarcoma Virus (Model of Infection with HIV)

[8] = system: human Molt4/C8 cells; experiment: Cytotoxic effect on Molt4/C8 cells; type: cell-based; details: Tables 5 and 7, Molt4/C8 cells
[9] = system: HIV-2; experiment: Anti-HIV-2 effect in CEM cells; type: cell-based; details: CEM cells, read-out: EC50 HIV-2
Description: (§3) The evaluation test is described in Roy, B.; Chambert, S.; Lepoivre M.; Aubertin, A.-M.; Balzarini, J.; Décout, J.-L., Deoxyribonucleoside 2′- or 3′-mixed disulfides: prodrugs to target ribonucleotide reductase and/or to inhibit HIV reverse transcription. J. Med. Chem. 2003, 46, 2565-2568.
(§4) The toxicity and the antiviral activities were measured at different concentrations, and their evolution as a function of the concentration makes it possible to evaluate: • the concentration at which 50% of the cells are dead in the absence of virus (CC 50) for each of the test compounds, from the change in absorbance at 540 nm of formazan as a function of the concentration of test compound, • the concentration of compound that leads to a 50% reduction in the activity of viral reverse transcriptase (EC 50). This concentration is determined from the curve representing the change in the percentage of “remaining reverse transcriptase” activity (defined as being the ratio of the activity of the reverse transcriptase in the presence of the test compound to that of the untreated cells) as a function of the concentration of test compound.
(§5) EC50: concentration required to afford 50% protection to the CEM cells against the cytopathogenicity of HIV;

[10] = system: HIV-1; experiment: Anti-HIV-1 effect in CEM cells; type: cell-based
Description: as §3, §4, §5

[11] = system: HIV-2; experiment: Anti-HIV-2 effect in CEM/TK− cells; type: cell-based; details: Human immunodeficiency virus 2, CEM-TK(-); Third Series; CEM cells having no thymidine kinase activity
Description: as §3, §4, §5
• Effect in CEM not expressing thymidine kinase activity (CEM/TK^−, cells having no thymidine kinase activity).

[12] = transformation of C3H/3T3 cells induced by Moloney sarcoma virus, read-out: EC50 (effective concentration 50%)
[13] = Human immunodeficiency virus 2, CCRF-CEM, Third Series
[14] = Human immunodeficiency virus 1, CCRF-CEM, Third Series, read-out: EC50 HIV-1

Compound	cytotoxic effect, HeLa [3]	cytotoxic effect, FM3A/0 [4]	cytotoxic effect, L1210/0 [5]	cytotoxic effect, CEM [6]	MIC (minimum inhibitory concentration) [7]	EC50 [7, 12] [µM]	cytotoxic effect, Molt4/C8 [8]	further results
CC(C)CCSC1=C[C@@H](CO)O[C@H]1n1ccc(=O)[nH]c1=O [Compound 2]								CC50 ([1]; Homo sapiens, MCF7, read-out: CC50 MCF-7): > 200 µM; CC50 ([2]; Table 3, MTT, human CEM cells): > 200 µM
Cc1cn([C@H]2C=C(SCC[Si](C)(C)C)[C@@H](CO)O2)c(=O)[nH]c1=O [Compound 4, 2′,3′-didehydro-2′,3′-dideoxy-3′-(2-trimethylsilyl)ethylthiothymidine]								cytotoxicity at 200 μM, MCF-7 [1]: 33%; CC50 ([2]; Homo sapiens): 82 µM
C[Si](C)(C)CCSC1=C[C@@H](CO)O[C@H]1n1ccc(N)nc1=O [Compound 5, 2′,3′-Didehydro-2′,3′-dideoxy-2′-(2-trimethylsilyl)ethylthiocytidine]								cytotoxicity at 200 μM, MCF-7 [1]: 41%; CC50 ([2]; Homo sapiens): 217 µM
Cc1cn([C@@H]2O[C@H](CO)C=C2[S+]([O-])CC[Si](C)(C)C)c(=O)[nH]c1=O (some centres unmarked) [Compound 6, 2′,3′-Didehydro-2′,3′-dideoxy-2′-(2-trimethylsilyl)ethylthiothymidine sulfoxide]								CC50 ([2]; Homo sapiens): > 200 µM
C[Si](C)(C)CC[S+]([O-])C1=C[C@@H](CO)O[C@H]1n1ccc(=O)[nH]c1=O (some centres unmarked) [Compound 8, 2′,3′-Didehydro-2′,3′-dideoxy-2′-(2-trimethylsilyl)ethylthiouridine sulfoxide]								CC50 ([2]; Homo sapiens): > 200 µM
Cc1cn([C@@H]2O[C@H](CO)C=C2SSc2ccccc2[N+](=O)[O-])c(=O)[nH]c1=O [Compound 11]								EC50 ([2]; Homo sapiens): > 200 µM
Cc1cn([C@@H]2O[C@H](CO)C=C2SSC(Cl)(Cl)Cl)c(=O)[nH]c1=O [Compound 12, 2′,3′-didehydro-2′,3′-dideoxythymidin-2′-yl trichloromethyl disulfide]								EC50 ([2]; Homo sapiens): 46 µM
Cc1cn(C2OC(CO)C=C2SSc2ccc([N+](=O)[O-])cc2)c(=O)[nH]c1=O (centres unmarked) [Compound 14, 2′,3′-didehydro-2′,3′-dideoxythymidin-2′-yl 4-nitrophenyl disulfide]	7.4 ± 1.6	39 ± 3	31 ± 3	31 ± 1	100	15	12 ± 5	
Cc1cn(C2OC(CO)C=C2SSc2ccccc2[N+](=O)[O-])c(=O)[nH]c1=O (centres unmarked) [Compound 15, 2′,3′-didehydro-2′,3′-dideoxythymidin-2′-yl 2-nitrophenyl disulfide]	31 ± 1	175 ± 30	42 ± 3	28 ± 0	100	8.3 ± 0.4	30 ± 15	
O=c1ccn([C@@H]2O[C@H](CO)C=C2SSc2ccc([N+](=O)[O-])cc2)c(=O)[nH]1 [Compound 16, 2′,3′-didehydro-2′,3′-dideoxyuridin-2′-yl 4-nitrophenyl disulfide]	16 ± 2	45 ± 2	42 ± 4	41 ± 1			28 ± 10	EC50 [9, 13]: 9.5 ± 7.8 µM; EC50 [10, 14]: 37.5 ± 17.7 µM; EC50 [11]: 32.5 ± 25 µM
O=c1ccn([C@@H]2O[C@H](CO)C=C2SSc2ccccc2[N+](=O)[O-])c(=O)[nH]1 [Compound 17, 2′,3′-didehydro-2′,3′-dideoxyuridin-2′-yl 2-nitrophenyl disulfide]	29 ± 9	206 ± 25	43 ± 5	40 ± 4			42 ± 1	EC50 [9, 13]: ≥ 10 µM; EC50 [10, 14]: 6.5 ± 4.9 µM; EC50 [11]: > 10 µM
CSS[C@H]1C[C@H](n2ccc(N)nc2=O)O[C@@H]1CO [Compound 19, 2′,3′-Dideoxycytidin-3′-yl methyl disulfide]					>100			EC50 ([9]; Human immunodeficiency virus 2, CCRF-CEM, First and Second Series, first table): 10.5 ± 9.3 µM; EC50 [9, 13]: 20 ± 7 µM; EC50 [10, 14]: 20 ± 7 µM; EC50 ([10]; Human immunodeficiency virus 1, CCRF-CEM, read-out: EC50 HIV-1, First and Second Series, first table): 3.3 ± 2.3 µM; EC50 [11]: 45 ± 21 µM; EC50 ([2]; Homo sapiens): > 200 µM; EC50 ([7]; C3H/3T3, read-out: EC50 (effective concentration 50%)): 48 ± 2 µM
CSS[C@H]1C[C@H](n2cc(Br)c(=O)[nH]c2=O)O[C@@H]1CO [Compound 23, 5-Bromo-2′,3′-dideoxyuridin-3′-yl methyl disulfide]								EC50 ([2]; Homo sapiens): 66 µM
Cc1cn([C@H]2C[C@H](SSc3ccc([N+](=O)[O-])cc3)[C@@H](CO)O2)c(=O)[nH]c1=O [Compound 25, 3′-deoxythymidin-3′-yl 4-nitrophenyl disulfide]	28 ± 12	148 ± 16	32 ± 3	34 ± 0	20	0.89 ± 0.36	29 ± 2	
Cc1cn([C@H]2C[C@H](SSc3ccccc3[N+](=O)[O-])[C@@H](CO)O2)c(=O)[nH]c1=O [Compound 26, 3′-deoxythymidin-3′-yl 2-nitrophenyl disulfide]	15 ± 0	220 ± 19	33 ± 7	32 ± 1	20	1.1 ± 0.8	31 ± 5	
Cc1cn([C@H]2C[C@H](SSCCCCCCO)[C@@H](CO)O2)c(=O)[nH]c1=O [Compound 30, 3′-deoxythymidin-3′-yl 6-hydroxyhexyl disulfide]								EC50 [9, 13]: 4.5 ± 2.1 µM; EC50 [10, 14]: 3 µM; EC50 [11]: > 10 µM
CSC1=C[C@@H](CO)O[C@H]1n1ccc(=O)[nH]c1=O [Compound 31, 2′,3′-didehydro-2′,3′-dideoxy-2′-methylthiouridine]								EC50 [9, 13]: 6.5 ± 0.7 µM; EC50 [10, 14]: ≥ 10 µM; EC50 [11]: > 10 µM
Nc1ncnc2c1ncn2CCOCP(=O)(O)O [PMEA, reference compound]						0.53 ± 0.13		
C[C@H](Cn1cnc2c(N)ncnc21)OCP(=O)(O)O [Tenofovir, reference compound]								EC50 ([9]; First and Second Series, first table): 2.6 µM; EC50 ([10]; First and Second Series, first table, read-out: EC50 HIV-1): 5.5 µM
(R)-PMEA [reference compound]					>10	0.23 ± 0.03		
